Test results: patent US6645983B1, “Pharmaceutical compositions comprising 4-quinolones for treating cancers” (Laboratoire L. Lafon, priority 1999, dated 2003)
Read-outs that look alike come from different tables or passages of the source.

Experiments:
SW1088 = experiment: MTT test, cytotoxic activity on non-clonogenic cell lines; type: cell-based; conditions: Homo sapiens, 10^−5 M, mean value
Procedure: (§1) The principle of the MTT test is based on the mitochondrial reduction, by the metabolically active live cells, of the yellow-colored product MTT (3-(4,5-dimethylthiazol-2-yl)-2,5-diphenyltetrazolium bromide) to a blue-colored product, formazan. The amount of formazan thus obtained is directly proportional to the amount of live cells present in the culture well(s). This amount of formazan is measured by spectrophotometry.
(§2) The cell lines are maintained as a monolayer culture at 37° C. in stoppered culture dishes containing MEM 25 MM HEPES (Minimum Essential Medium) base medium. This medium is suited to the growth of a range of various mammalian diploid or primary cells. This medium is then supplemented with:
(§3) The 12 human cancer cell lines which were used were obtained from the American Type Culture Collection (ATCC, Rockville, Md., USA). These 12 cell lines are:
SW1088 (code ATCC: HTB-12) which is an astro-cytoma,
(§4) Experimentally, 100 μl of a cell suspension containing 20 000 to 50 000 (depending on the cell type used) cells/ml of culture medium are inoculated -in 96-well flat-bottomed multi-well plates and are left to stand in an incubator at 37° C., 5% CO2 and 70% humidity. After an incubation time of 24 hours, the culture medium is replaced with 100 μl of fresh medium containing either the various test compounds—at concentrations varying from 10^−5 to 10^−10 M—or the solvent having served for dissolving the products to be tested (control condition). […] The microplates are thus incubated for 3 hours at 37° C., then centrifuged for 10 minutes at 400 g. The yellowish solution of MTT is removed and the blue formazan crystals formed in the cell region are dissolved in 100 μl or DMSO. The microplates are then shaken for 5 minutes. […] Software incorporated in the spectrophotometer calculates the average optical density values and the standard deviation (SD) and standard error of mean (SEM) values.

[1] = Determination of the maximum tolerated dose (MTD); conditions: B6D2F1/Jico, mouse, in vivo, ip; single intraperitoneal administration, doses 2.5 to 160 mg/kg, survival over 14 days
Procedure: The evaluation of the maximum tolerated dose was performed on 4- to 6-week-old B6D2F1/Jico mice. The compounds were administered intraperitoneally at increasing doses ranging from 2.5 to 160 mg/kg. The value of the MTD (expressed in mg/kg) is determined from the observation of the survival rate of the animals over a 14-day period after a single administration of the product under consideration. The change in weight of the animals is also monitored during this period. When the MTD value is greater than 160 mg/kg, the MTD value is considered as being 160 mg/kg by default.

U-373MG = experiment: MTT test, cytotoxic activity on non-clonogenic cell lines; type: cell-based; conditions: Homo sapiens, U373 MG, 10^−5 M, mean value
Procedure: as §1, §2, §3, §4

HCT-15 = experiment: as above; type: cell-based; conditions: Homo sapiens, mean value
Procedure: as §1, §2, §3, §4

PC-3 = experiment: as above; type: cell-based; conditions: Homo sapiens, 10^−5 M, mean value
Procedure: as §1, §2, §3, §4

U-87MG = experiment: as above; type: cell-based; conditions: Homo sapiens, 10^−5 M, mean value
Procedure: as §1, §2, §3, §4

LoVo = experiment: as above; type: cell-based; conditions: Homo sapiens, 10^−5 M, mean value
Procedure: as §1, §2, §3, §4

A549 = experiment: as above; type: cell-based; conditions: Homo sapiens, 10^−5 M, mean value
Procedure: as §1, §2, §3, §4

T-47D = experiment: as above; type: cell-based; conditions: Homo sapiens, T47D, 10^−5 M, mean value
Procedure: as §1, §2, §3, §4

A-427 = experiment: as above; type: cell-based; conditions: Homo sapiens, 10^−5 M, mean value
Procedure: as §1, §2, §3, §4

MCF7 = experiment: as above; type: cell-based; conditions: Homo sapiens, 10^−5 M, mean value
Procedure: as §1, §2, §3, §4

T24 = experiment: as above; type: cell-based; conditions: Homo sapiens, T-24, 10^−5 M, mean value
Procedure: as §1, §2, §3
(§5) J82 (code ATCC: HTB-1) and T24 (code ATCC: HTB-4) which are two bladder cancers,
as §4

J82 = experiment: as above; type: cell-based; conditions: Homo sapiens, 10^−5 M, mean value
Procedure: as §1, §2, §3, §5, §4

[2] = 72 hours incubation, MTT, read-out: mean optical density, expressed as percentage relative to the mean optical density under the control condition (100%)
[3] = 72 hours of incubation, control condition = 100%, read-out: mean optical density as percentage of control, SW1088
[4] = 72 hours of incubation, control condition = 100%, read-out: mean optical density as percentage of control, U-373MG
[5] = 10^−5 M, 72 hours of incubation, control condition = 100%, read-out: mean optical density as percentage of control, HCT-16
[6] = 72 hours of incubation, control condition = 100%, read-out: mean optical density as percentage of control, PC-3
[7] = U-87 MG, 72 hours of incubation, control condition = 100%, read-out: mean optical density as percentage of control, U-87MG
[8] = 72 hours of incubation, control condition = 100%, read-out: mean optical density as percentage of control, LoVo
[9] = 72 hours of incubation, control condition = 100%, read-out: mean optical density as percentage of control, A549
[10] = 72 hours of incubation, control condition = 100%, read-out: mean optical density as percentage of control, T-47D
[11] = 72 hours of incubation, control condition = 100%, read-out: mean optical density as percentage of control, A-427
[12] = 72 hours of incubation, control condition = 100%, read-out: mean optical density as percentage of control, MCF7
[13] = 72 hours of incubation, control condition = 100%, read-out: mean optical density as percentage of control, T24
[14] = 72 hours of incubation, control condition = 100%, read-out: mean optical density as percentage of control, J82

For `COc1ccc(-c2cn(C)c3cc(OC)cc(N4CCN(C)CC4)c3c2=O)cc1` [CRL8436, 7-Methoxy-3-(4-methoxyphenyl)-1-methyl-5-(1-methyl-piperazino)-1,4-dihydro-4-quinolinone], the viability at 10 µM (SW1088; [2]) was 102%, the MTD at 14 day [1] was > 160 mg/kg and the viability at 10 µM (U-373MG; U-373MG, 72 hours incubation, MTT, read-out: mean optical density, expressed as percentage relative to the mean optical density under the control condition (100%)) was 97.2%. It also gave a viability at 10 µM (HCT-15; HCT-16, 10^−5 M, 72 hours incubation, MTT, read-out: mean optical density, expressed as percentage relative to the mean optical density under the control condition (100%)) of 101%, a viability at 10 µM (PC-3; [2]) of 99.9% and a viability at 10 µM (U-87MG; U-87MG, 72 hours incubation, MTT, read-out: mean optical density, expressed as percentage relative to the mean optical density under the control condition (100%)) of 97.3%. For the same compound, the viability at 10 µM (LoVo; [2]) was 108%, the viability at 10 µM (A549; [2]) was 101% and the viability at 10 µM (T-47D; T-47D, 72 hours incubation, MTT, read-out: mean optical density, expressed as percentage relative to the mean optical density under the control condition (100%)) was 89.4%. It also gave a viability at 10 µM (A-427; [2]) of 109%, a viability at 10 µM (MCF7; [2]) of 96.4% and a viability at 10 µM (T24; T24, 72 hours incubation, MTT, read-out: mean optical density, expressed as percentage relative to the mean optical density under the control condition (100%)) of 99.2%. The viability at 10 µM (J82; [2]) was 101%.
With `COc1ccc(-c2c[nH]c3cc(OC)ccc3c2=O)cc1` [CRL8358, 7-Methoxy-3-(4-methoxyphenyl)-1,4-dihydro-4-quinolinone] the viability at 10 µM (SW1088; [3]) was 98.3%, the MTD at 14 day [1] was > 160 mg/kg and the viability at 10 µM (U-373MG; [4]) was 41%. For the same compound, the viability at 10 µM (HCT-15; [5]) was 89.1%, the viability at 10 µM (PC-3; [6]) was 89.1% and the viability at 10 µM (U-87MG; [7]) was 80.1%. It also gave a viability at 10 µM (LoVo; [8]) of 38%, a viability at 10 µM (A549; [9]) of 55% and a viability at 10 µM (T-47D; [10]) of 92.1%. For the same compound, the viability at 10 µM (A-427; [11]) was 34.5%, the viability at 10 µM (MCF7; [12]) was 84.1% and the viability at 10 µM (T24; [13]) was 90.7%. The viability at 10 µM (J82; [14]) was 92.7%.
For `COc1ccc(-c2c[nH]c3ccccc3c2=O)cc1` [CRL8327, 3-(4-Methoxyphenyl)-1,4-dihydro-4-quinolinone], the viability at 10 µM (SW1088; [3]) was 99%, the MTD at 14 day [1] was > 160 mg/kg and the viability at 10 µM (U-373MG; [4]) was 58.7%. For the same compound, the viability at 10 µM (HCT-15; [5]) was 87.5%, the viability at 10 µM (PC-3; [6]) was 87.4% and the viability at 10 µM (U-87MG; [7]) was 89%. For the same compound, the viability at 10 µM (LoVo; [8]) was 47.3%, the viability at 10 µM (A549; [9]) was 71.5% and the viability at 10 µM (T-47D; [10]) was 79%. For the same compound, the viability at 10 µM (A-427; [11]) was 77.5%, the viability at 10 µM (MCF7; [12]) was 90.7% and the viability at 10 µM (T24; [13]) was 187%. For the same compound, the viability at 10 µM (J82; [14]) was 85.1%.
With `COc1ccc(-c2cn(C)c3cc(OC)cc(O)c3c2=O)cc1` [CRL8377, 5-Hydroxy-7-methoxy-3-(4-methoxyphenyl)-1-methyl-1,4-dihydro-4-quinolinone] the viability at 10 µM (SW1088; [3]) was 99.8%, the MTD at 14 day [1] was > 160 mg/kg and the viability at 10 µM (U-373MG; [4]) was 56.7%. The viability at 10 µM (HCT-15; [5]) was 86.6%, the viability at 10 µM (PC-3; [6]) was 87.4% and the viability at 10 µM (U-87MG; [7]) was 49.5%. For the same compound, the viability at 10 µM (LoVo; [8]) was 85%, the viability at 10 µM (A549; [9]) was 67% and the viability at 10 µM (T-47D; [10]) was 66.9%. For the same compound, the viability at 10 µM (A-427; [11]) was 26.5%, the viability at 10 µM (MCF7; [12]) was 104% and the viability at 10 µM (T24; [13]) was 85%. For the same compound, the viability at 10 µM (J82; [14]) was 98.7%.
In the case of `COc1ccc(-c2c[nH]c3cc(OC)cc(OC)c3c2=O)cc1` [CRL8337, 5,7-Dimethoxy-3-(4-methoxyphenyl)-1,4-dihydro-4-quinolinone], the viability at 10 µM (SW1088; [3]) is reported as 84.9%, the MTD at 14 day [1] is reported as > 160 mg/kg and the viability at 10 µM (U-373MG; [4]) is reported as 95.6%. The viability at 10 µM (HCT-15; [5]) was 98.5%, the viability at 10 µM (PC-3; [6]) was 92.8% and the viability at 10 µM (U-87MG; [7]) was 84.4%. For the same compound, the viability at 10 µM (LoVo; [8]) was 93.3%, the viability at 10 µM (A549; [9]) was 96.9% and the viability at 10 µM (T-47D; [10]) was 79.4%. For the same compound, the viability at 10 µM (A-427; [11]) was 106%, the viability at 10 µM (MCF7; [12]) was 76.5% and the viability at 10 µM (T24; [13]) was 102%. The viability at 10 µM (J82; [14]) was 90.9%.
